Test results taken from PubChem BioAssay AID2060508 (Molecular Pharmacology Branch, DTP, NCI, 2025).
pIC50: −log10 of the molar value. Several values for one entry are separate records, joined by “and”; a condition that tells them apart may be missing. Equal values may be shown once.

Test system: 454973-116-R2-J3-PDC spheroids, viability, % test/control
Assay: Anticancer human tumor 454973-116-R2-J3-PDC patient-derived pancreatic carcinoma cell line growth inhibition [GQUAD]
Details: spheroids with HUVEC and MSC; for viability, T/C: stronger effect = lower value
Excerpt: DNA G-quadruplex Stabilizer Agents in Combinations in Complex Spheroids
A high-throughput screen of multi-cell type tumor spheroids was designed to identify active combinations of DNA G-quadruplex stabilizer agents and targeted small molecules. Complex spheroids include a stromal component modeled by human endothelial cells (HUVEC) and fibroblasts modeled by human mesenchymal stem cells (MSCs). The concentration ranges selected for each drug and investigational agent were based upon clinically achievable concentrations if the clinical Cmax of the agent was known.
Compounds. The drugs and investigational agents: pidnarulex (CX-5461; NSC782164), APTO-253 (NSC789042), BRACO-19 (NSC847499), peposertib (NSC802822), ceralasertib (NSC780249), elimusertib (NSC800525), camonsertib (NSC841442), AZD-1390 (NSC803789), olaparib (NSC753686), talazoparib (NSC767125), ART-558 (NSC835418), sotorasib (NSC818433), MRTX-1133 (NSC836407), SN-38 (NSC673596), topotecan (NSC609699), etoposide (NSC141540), doxorubicin (NSC123127), gemcitabine (NSC613327), 5-fluorouracil (NSC19893), paclitaxel (NSC125973), vemurafenib (NSC761431), panobinostat (NSC761190), R-306465 (JNJ-16241199; NSC773264), adavosertib (NSC754352), TP-3654 (NSC805149), carboplatin (NSC241240), KSQ-4279 (NSC840948), and staurosporine (NSC755774) were obtained from the National Cancer Institute (NCI) Developmental Therapeutics Program Chemical Repository (34). The FDA-approved anticancer drug set is available from the NCI Developmental Therapeutics Program. […] The stock solutions were prepared in dimethyl sulfoxide (DMSO, Sigma-Aldrich, St. Louis, MO, cat. D2650) at 800-fold the tested concentration and stored at -70 degrees C prior to their use. All drugs and investigational agents were tested over a range starting from a high concentration at or near the clinical Cmax and decreasing in half-log increments. If the clinical Cmax for an agent had not been determined, the highest concentration tested was 10 microM.
2.3 Cell Culture. All cells were maintained in an incubator at 37 degrees C and 5% CO2 with 95% humidity. The PDC lines were cultured according to standard operating procedures established by the NCI PDMR. All PDCs were thawed and cultured in Matrigel-coated flasks prepared with a working solution of 1X Ham's F-12 nutrient mix, without supplementation (Invitrogen, cat. 11765054), 100 U/mL penicillin-streptomycin (Invitrogen, cat. 15140122), and 2.5% Matrigel (Corning Inc., cat. 354248) for the first three passages. The 857933-349-R-J2-PDC line was cultured in 6C/Colon 1B media, which includes advanced DMEM/F-12 (Thermo Fisher Scientific, cat. 12634028), 10 mM HEPES (Thermo Fisher Scientific, cat. 15630080), 1X GlutaMAX supplement (Thermo Fisher Scientific, cat. 35050061), 0.1 mg/mL primocin (InvivoGen, cat. ant-pm-2), 10% defined fetal bovine serum, heat inactivated (HyClone Laboratories Inc., cat. SH30070.03HI), 50% L-WRN conditioned media (ATCC, cat. CRL-3276), 1.25 mM N-Acetyl-L-cysteine (Sigma-Aldrich, cat. A9165), 10 mM nicotinamide (Sigma-Aldrich, cat. N0636), 1X B-27 supplement (Thermo Fisher Scientific, cat. 17504044), 1X N-2 supplement (Thermo Fisher Scientific, cat. 17502048), 10 microM Y-27632 dihydrochloride (Tocris Bioscience, cat. 1254), and 50 ng/mL human EGF recombinant protein (Thermo Fisher Scientific, cat. PHG0311). The 485176-168-R4-J1-PDC line was cultured in Panc media, which includes all 6C/Colon 1B media components plus 100 ng/mL human FGF-10 (Thermo Fisher Scientific, cat. 100-26), 500 nM SB-431542 (Selleckchem, cat. S1067), and gastrin (Tocris, cat. 3006).
[…]
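Further: spheroids exposed to compounds for seven days.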

**Q.** How did the viability, T/C (compound 0.0316 µM) turn out when `O=c1[nH]cc(F)c(=O)[nH]1` was run?
**A.** 111% and 108% and 105%

**Q.** And the viability, T/C (compound 0.1 µM)?
**A.** 93.5% and 97.6% and 87.4%

**Q.** And the viability, T/C (compound 0.316 µM)?
**A.** 105% and 95.1% and 107%

**Q.** What about the viability, T/C (compound 1 µM) of the same compound?
**A.** 76% and 70.2% and 86.5%

**Q.** What about the viability, T/C (compound 3.16 µM) of the same compound?
**A.** 32.9% and 34.6% and 35.7%

**Q.** And the viability, T/C (compound 10 µM)?
**A.** 46.3% and 42.6% and 32.9%

**Q.** What about the pIC50 (curve of compound) of the same compound?
**A.** 5.64 and 5.68

**Q.** `CC(=O)O[C@H]1C(=O)[C@@]2(C)[C@H]([C@H](OC(=O)c3ccccc3)[C@]3(O)C[C@H](OC(=O)[C@H](O)[C@@H](NC(=O)c4ccccc4)c4ccccc4)C(C)=C1C3(C)C)[C@]1(OC(C)=O)CO[C@@H]1C[C@@H]2O` + Cc1cnc(CNC(=O)c2c(=O)c3ccc(N4CCCN(C)CC4)nc3n3c2sc2ccccc23)cn1 was tested. Which pIC50 (curve of first compound, second compound 0.0316 µM) did it give?
**A.** > 7.50

**Q.** And the pIC50 (curve of first compound, second compound 0.1 µM)?
**A.** > 7.50

**Q.** And the pIC50 (curve of first compound, second compound 0.316 µM)?
**A.** > 7.50

**Q.** And the pIC50 (curve of first compound, second compound 1 µM)?
**A.** > 7.50

**Q.** What about the pIC50 (curve of first compound, second compound 3.16 µM) of the same compound?
**A.** > 7.50

**Q.** And the pIC50 (curve of first compound, second compound 10 µM)?
**A.** > 7.50

**Q.** What about the viability, T/C (second compound 0.0316 µM, first compound 0.0316 µM) of the same compound?
**A.** 17.2%

**Q.** What about the viability, T/C (second compound 0.0316 µM, first compound 0.1 µM) of the same compound?
**A.** 12.7%

**Q.** What about the viability, T/C (second compound 0.0316 µM, first compound 0.316 µM) of the same compound?
**A.** 10.7%

**Q.** And the viability, T/C (second compound 0.0316 µM, first compound 1 µM)?
**A.** 7.9%

**Q.** And the viability, T/C (second compound 0.0316 µM, first compound 3.16 µM)?
**A.** 9.07%

**Q.** And the viability, T/C (second compound 0.0316 µM, first compound 10 µM)?
**A.** 11.3%

**Q.** And the viability, T/C (second compound 0.1 µM, first compound 0.0316 µM)?
**A.** 20.6%

**Q.** And the viability, T/C (second compound 0.1 µM, first compound 0.1 µM)?
**A.** 16.3%

**Q.** And the viability, T/C (second compound 0.1 µM, first compound 0.316 µM)?
**A.** 9.56%

**Q.** What about the viability, T/C (second compound 0.1 µM, first compound 1 µM) of the same compound?
**A.** 9.77%

**Q.** And the viability, T/C (second compound 0.1 µM, first compound 3.16 µM)?
**A.** 11.2%

**Q.** What about the viability, T/C (second compound 0.1 µM, first compound 10 µM) of the same compound?
**A.** 15.5%

**Q.** And the viability, T/C (second compound 0.316 µM, first compound 0.0316 µM)?
**A.** 27.5%

**Q.** What about the viability, T/C (second compound 0.316 µM, first compound 0.1 µM) of the same compound?
**A.** 17.2%

**Q.** What about the viability, T/C (second compound 0.316 µM, first compound 0.316 µM) of the same compound?
**A.** 17.9%

**Q.** What about the viability, T/C (second compound 0.316 µM, first compound 1 µM) of the same compound?
**A.** 15.7%

**Q.** What about the viability, T/C (second compound 0.316 µM, first compound 3.16 µM) of the same compound?
**A.** 15.3%

**Q.** And the viability, T/C (second compound 0.316 µM, first compound 10 µM)?
**A.** 19.6%

**Q.** What about the viability, T/C (second compound 1 µM, first compound 0.0316 µM) of the same compound?
**A.** 33.9%

**Q.** What about the viability, T/C (second compound 1 µM, first compound 0.1 µM) of the same compound?
**A.** 28.3%

**Q.** What about the viability, T/C (second compound 1 µM, first compound 0.316 µM) of the same compound?
**A.** 23.3%

**Q.** What about the viability, T/C (second compound 1 µM, first compound 1 µM) of the same compound?
**A.** 25.7%

**Q.** And the viability, T/C (second compound 1 µM, first compound 3.16 µM)?
**A.** 24.8%

**Q.** And the viability, T/C (second compound 1 µM, first compound 10 µM)?
**A.** 30.4%

**Q.** And the viability, T/C (second compound 3.16 µM, first compound 0.0316 µM)?
**A.** 42.4%

**Q.** What about the viability, T/C (second compound 3.16 µM, first compound 0.1 µM) of the same compound?
**A.** 36.2%

**Q.** And the viability, T/C (second compound 3.16 µM, first compound 0.316 µM)?
**A.** 32.1%

**Q.** And the viability, T/C (second compound 3.16 µM, first compound 1 µM)?
**A.** 26.5%

**Q.** And the viability, T/C (second compound 3.16 µM, first compound 3.16 µM)?
**A.** 34.1%

**Q.** And the viability, T/C (second compound 3.16 µM, first compound 10 µM)?
**A.** 37.1%

**Q.** And the viability, T/C (second compound 10 µM, first compound 0.0316 µM)?
**A.** 0.12%

**Q.** What about the viability, T/C (second compound 10 µM, first compound 0.1 µM) of the same compound?
**A.** 1.08%

**Q.** What about the viability, T/C (second compound 10 µM, first compound 0.316 µM) of the same compound?
**A.** 0.19%

**Q.** And the viability, T/C (second compound 10 µM, first compound 1 µM)?
**A.** 0.17%

**Q.** What about the viability, T/C (second compound 10 µM, first compound 3.16 µM) of the same compound?
**A.** 0.19%

**Q.** What about the viability, T/C (second compound 10 µM, first compound 10 µM) of the same compound?
**A.** 0.21%
